From patent US12174172B2, “Method for evaluating the efficacy of a composition in reducing the effects of cancer therapeutics on skin” (Johnson & Johnson Consumer Inc., priority 2019, dated 2024)
Entries after “also recorded” stand apart in the source; their conditions may differ.

Legend:
[1] = test system: Human epidermal keratinocytes cells (HPEKs), 3D micro-epidermis; assay: 3D micro-epidermis model (EpiScreen): epidermis size, toxicity, dose response, classification; type: cell-based;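 also: keratinocytes on micropatterned discs in high-calcium medium, drug exposure for three days, then fixation and confocal high-content imaging of actin, nuclei and a marker, vehicle DMSO-matched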
[2] = test system: involucrin (IVL); assay: 3D micro-epidermis model (EpiScreen): involucrin immunostaining; type: cell-based, human
Experimental: To assess the effects of such therapy molecules on the epidermis, keratinocytes were grown in the presence of kinase inhibitors during 3 days with high calcium concentration to induce keratinocyte differentiation and generate a 3D-stratified differentiated epidermis. Drug impact on the epidermis development was assessed via different keratinocyte markers including: • Ki-67, an universally expressed protein among proliferating cells and absent in the quiescent cells; • Filaggrin, a filament-associated protein that binds to keratin fibers and is a marker of terminal differentiation; • Desmoglein-1, a component of desmosomes and differentiation marker expressed in all epidermal layer above the basal layer; and • Involucrin, an early differentiation marker expressed in the spinous and granular layers and a protein precursor of the epidermal cornified envelope.
Human epidermal keratinocytes cells (HPEKs) from a juvenile donor (CellnTec, Switzerland) are cultured in flasks in proliferation medium. Keratinocytes are seeded at passage 6 into EpiScreen™ (Abzena, Cambridge, UK) plates containing collagen 1 coated disc micropatterns (CYTOO, Grenoble, France). Four hours later, unattached cells are washed off and a high calcium medium is added to induce keratinocytes differentiation. The day after, keratinocytes are treated with screening compounds, and Trichostatin A is added at 0.3 μM as an internal positive control. After three days of treatment, micro-epidermises are fixed with a formalin solution 10% for 30 minutes, then permeabilized with 0.1% Triton. Several immunostainings are performed: actin (Acti-Stain 555, PHDH1, Cytoskeleton), nuclei (Hoechst, H3570, Invitrogen), and one biomarker of interest per well either anti-involucrin (HPA055211, Sigma), anti-filaggrin (HPA030189, Sigma) or anti-desmoglein-1 (HPA022128, Sigma). Antibodies are added overnight at 4° C. before staining with secondary antibody, anti-rabbit 488 (711-545-152, Jackson) for 2 hours at room temperature.
Images of each well are acquired with the Operetta HCS platform (Perkin Elmer, Waltham, MA, USA) using a ×10 objective in confocal mode in eight z-planes from 2 μm to 44 μm in steps of 6 μm in each of the 3 channels: actin, nuclei, and one biomarker of interest. The first step of the image analysis consists in detecting micro-epidermis structures on the first z-plane by segmenting the actin staining. Micro-epidermis structures are validated based on several area and roundness min and max criteria. Then, the area of each biomarker staining is measured inside the valid micro-epidermis masks through each z-plane. For all homogeneous biomarker staining, their intensity through the different planes is measured.
The actin network of each micro-epidermis is analyzed in each z-plane in order to determine the average 3D structure edges. The biomarker intensity is measured in each z-plane for each structure, and then averaged with the other results generated in the same well. Based on the data generated in the two previous steps, an average 3D reconstruction image is generated. It consists of a meshwork that delimits the structure edges, and a color scaled volume that corresponds to the biomarkers distribution and expression.
The effect of 8 oncology molecules, selected from first generation EGFRi and pan-kinase inhibitors which mostly target VEGFR and second and third generation therapies targeting main mutations relating to first generation treatment resistance, were assessed in vitro using a 3D micro-epidermis model. […] The drug impact was assessed by analysis of tissue size and keratinocyte proliferation using Ki-67 staining and keratinocyte differentiation using filaggrin, desmoglein-1 and involucrin staining.
Size of the epidermis and the expression of the protein junction desmoglein-1 (DSG1), involucrin (IVL) and filaggrin (FLG) was assessed by immunostaining and compared to untreated control. […]

[3] = test system: caspase-3 activity in keratinocytes; assay: Caspase-3 fluorometric assay (cell apoptosis); type: cell-based, human; conditions: 2.59 nM and 25.89 nM, 24 h (FIG. 5b)
Description: The kit (biotium, Fremont, CA, USA) provides a homogenous assay system for fast and highly sensitive detection of caspase-3 activity by fluorescence in enzymatic reaction or mammalian cells. The fluorogenic substrate (Ac-DEVD) 2-R110 contains two DEVD (Asp-Glu-Val-Asp) tetrapeptides and is completely hydrolyzed by the enzyme in two successive steps. Cleavage of the first DEVD peptide results in the monopeptide Ac-DEVD-R110 intermediate, which has absorption and emission wavelengths similar to those of R110 (Ex/Em=496/520 nm) but has only about 10% of the fluorescence of the latter. Hydrolysis of the second DEVD peptide releases the dye R110, leading to a substantial fluorescence increase. Keratinocytes were plated at 15,000 cells per well in 100 μl of medium in a 96-well black microplate. They were allowed to attach and grow overnight in a 37° C., 5% CO2 incubator. They were then treated for 20 h with a 1:2 dilution series of staurosporine, a caspase 3 inducer. Imaging was performed on Perkin Elmer EnVision 2103 Multilabel Reader using an excitation wavelength of 490 nm and emission wavelength of 535 nm. Cells were incubated at room temperature for 15 min, protected from light. Results were obtained with 6 donors of keratinocytes in 2 experiments

[4] = most frequent cutaneous adverse reaction reported by the FDA Adverse Event Reporting System; cited from earlier work

SMILES: CN(C)C/C=C/C(=O)Nc1cc2c(Nc3ccc(F)c(Cl)c3)ncnc2cc1O[C@H]1CCOC1 [Afatinib]
- Toxicity at 1 μM ([1]; 1 μM, micro-epidermis): Yes
- effect on desmoglein-1, involucrin and filaggrin expression (dose dependence) ([1]; 3, 10, 30 nM): increases; also recorded: dose-dependent manner
- Epidermis size ([1]; Table 1 summary of drug effect on epidermis): Decreased
- Classification ([1]; Table 1 summary, pro-differentiation / pro-proliferation): Pro-differentiation
- Epidermis size ([1]; Table 3, 30 nM (EGFRi) or 100 nM (VEGFRi), 3 days, vs untreated control, superscript = significance footnote): Decreased^2
- Classification ([1]; Table 3, pro-proliferation or pro-differentiation): Pro-
- Dose in response ([1]; Table 3, variation of protein expression at 3, 10, 30 nM (EGFRi) or 3, 10, 30, 100 nM (VEGFRi), markers in brackets): Yes
- toxicity at higher drug concentration ([1]; above 1 μM, micro-epidermis): toxic leading to epidermal necrosis
- micro-epidermis size / epidermal volume ([1]; concentration (afatinib 3-30 nM; pan-kinase inhibitors up to 100 nM)): significantly decreased; also recorded: significantly reduced
- Dose/response ([1]; supplementary table, per run (1st or 2nd Run), markers in brackets): Yes (DSG, IVL,
- IVL 30 nM ([2]; 30 nM, supplementary data): 12%
- activation at 0.1 µM ([2]; Homo sapiens, 72 h, 100 nM, supplementary data, two runs, Tox = toxic): 16%
- activation at 1 µM ([2]; Homo sapiens, 72 h, 1 μM, supplementary data, two runs, Tox = toxic): 27%
- IVL expression ([2]; Table 1 summary): Increased
- involucrin expression ([2]; concentration (afatinib 3, 10, 30 nM; pan-kinase inhibitors 100 nM)): significantly increased; also recorded: increased in a dose-dependent manner
- cell apoptosis [3]: does not induce apoptosis; also recorded: did not show any effect; also recorded: not affected
- Major Skin Effect [4]: Rash
